Test results from patent US20260014125A1, “BICYCLIC-TYPE MAT2A INHIBITOR AND USE THEREOF” (HAIHE BIOPHARMA CO., LTD., priority 2022, published 2026).

Columns and labels:
KP-4 cells = experiment: Human pancreatic cancer KP-4 cell activity inhibition test (CellTiter-Glo); format: cell-based; settings: 5 days
Experimental: Experimental principle: after co-incubating the MAT2A inhibitor to be tested with KP-4 cells for a period of time, a cell viability measurement method based on ATP content is used to characterize the effect of the tested compound on cell viability.
Experimental material: KP-4 cells (JCRB #JCRB0182); IMDM (Gibco 912440061); fetal bovine serum (EXCELL #FND500); penicillin-streptomycin (Gibco #15140-122); 0.25% Typsin-EDTA (Gibco #252(101-072); DMSO (Sigma #D2650); 96 well plate (Corning #3610); CellTiter-Glo (Promega #G7571)
1. KP-4 cells were cultured in IMDM culture medium containing 10% e fetal bovine serum and 1% penicillin-streptomycin at 37° C. and 5% CO2 in a cell culture incubator. Only cells in logarithmic growth phase were used for subsequent experiments.
2. The cells in logarithmic growth phase were inoculated into a 96 well plate, with a seeding quantity of 500 cells per well, and incubated overnight in a cell culture incubator at 37′C and 5% CO2.
3. The compound was dissolved with DMSO, diluted with culture medium to 10 different concentrations (approximately […]), 3333.3, 1111.1, 370, 123, 41.2, 13.7, 4.6, 1.5, and 0.5 nM) before adding it to the cell plate, and cultured at 37° C. and 5% CO2 for 5 days.
4. CellTiter-Glo reagent was added, and an enzyme-linked immunosorbent assay reader was used to detect cell viability.
Data analysis: the inhibition rate (%) of the compound was calculated and fitted to obtain the IC50 of the tested compound. Calculation method for compound inhibition rate: Compound inhibition rate (%)=(Signal_max−Signal_sample)/(Signal_max−Signal_min)×100, wherein Signal_sample was the sample well reading, indicating the cell activity of the compound inhibition well; Signal_min was the positive control well reading, indicating the background activity without cells; and Signal_max was the negative control well reading, indicating the cell activity of the well without compound inhibition.

MAT2A = MAT2A (Homo sapiens (Human), UniProt P31153); experiment: Biochemical test: inhibition of MAT2A enzyme activity (phosphate detection, OD620); settings: MAT2A his-tag; 150 minutes enzymatic reaction
MAT2A, sequence (P31153 whole entry): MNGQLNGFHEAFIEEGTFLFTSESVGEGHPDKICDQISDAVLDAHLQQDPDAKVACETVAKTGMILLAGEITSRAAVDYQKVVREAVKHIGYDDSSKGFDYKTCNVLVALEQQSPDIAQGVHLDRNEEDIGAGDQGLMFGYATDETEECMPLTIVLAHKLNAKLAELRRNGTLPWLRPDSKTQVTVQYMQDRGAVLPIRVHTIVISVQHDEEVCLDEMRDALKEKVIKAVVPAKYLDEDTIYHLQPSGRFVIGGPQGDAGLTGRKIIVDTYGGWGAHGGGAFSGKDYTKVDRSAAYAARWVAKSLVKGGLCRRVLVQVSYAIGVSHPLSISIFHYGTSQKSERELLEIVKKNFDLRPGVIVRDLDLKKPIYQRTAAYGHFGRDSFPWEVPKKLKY
Text: Experimental principle: MAT2A can catalyze the conversion of L-methionine and ATP into SAM, inorganic phosphate, and inorganic diphosphate. By adding a chromogenic reagent to the enzymatic reaction system, the content of inorganic phosphates in a sample can be quantitatively detected, thereby characterizing the enzymatic activity of MAT2A.
Experimental material: Tris (Life Science #0497); BSA (Sigma #); MAT2A his-tag (BPS #71401-1); 384 well plate (Corning #3765); L-methionine (Admas #1100469); ATP (Sigma #A7699); MgCl2 (Sigma #M8266); KCl (Sigma #7447-40-7); Brij35 (Sigma #B4184); EDTA (Sigma #E1644)
1. 1×Assaybuffer (buffer composition: Tris, KCl, MgCl2, BSA, Brij35, and EDTA; the solvent was ultrapure water) was prepared. MAT2A his-tag enzyme solution (containing 1.3 μL of MAT2A enzyme and 998.7 μL of 1×Assaybuffer per 1000 μL) and substrate mixed solution (containing 5 μL of ATP, 1.3 μL of L-methionine, and 993.7 μL of 1×Assaybuffer per 1000 μL) were prepared using 1×AssayBuffer.
2. Preparation of compound concentration gradient: The test compound was tested with a starting concentration of 10 μM, and 10 equimolar concentrations were set according to a 3-fold dilution. Specifically, firstly, the compound was diluted into 10 different concentrations of series solutions in a 384 well plate (with final detection concentrations of 10, 3.33, 1.11, 0.37, 0.123, 0.041, 0.0137, 0.0046, 0.0015, and 0.0005 μM), and then 250 nL of the above series solutions was transferred to the 384 well reaction plate using an ultrasonic pipetting system Echo550 for later use. 250 nL of 100% DMSO was added into a negative control well and a positive control well, respectively. Double well test.
3. 15 μL of MAT2A his-tag enzyme solution was added into both the compound well and the positive control well; and 15 μL of 1×Assaybuffer was added into the negative control well.
4. The 384 well plate reaction plate was centrifuged at 1000 rpm for 60 seconds, shaken, mixed well, and incubated for 15 minutes. 10 μL of substrate mixed solution was added into each experimental well of the 384 well reaction plate to initiate the reaction.
5. The 384 well reaction plate was centrifuged at 1000 rpm for 60 seconds, shaken, mixed well, and incubated for 150 minutes.
6. 50 μL of enzyme reaction termination solution Biomol was added into all experimental wells of the 384 well reaction plate to terminate the reaction, centrifuged at 1000 rpm for 60 seconds, and incubated for 15 minutes. OD620 was read and data was processed.
Data analysis: the inhibition rate (%) of the compound was calculated and fitted to obtain the IC50 of the tested compound. Calculation method for compound inhibition rate: Compound inhibition rate (%)=(OD620_max−OD620_stample)/(OD620_max−OD620_min)×100, wherein OD620_stample was the absorbance value of the sample well; OD620 min was the absorbance value of the positive control well, indicating the reading of the wells without enzyme activity; and OD620_max was the absorbance value of the negative control well, indicating the reading of the well without compound inhibition.

Row | SMILES | IC50 (KP-4 cells; Homo sapiens, 120 h) [nM] | IC50 (MAT2A) [nM] | IC50 (KP-4 cells) [nM]
1 | Cn1cc2cc(-n3c(=O)c(-c4ccc(OC(F)F)cc4)c(OCC(F)(F)F)c4cn[nH]c43)ccc2n1 [Compound 27] | 6.8 | 17.1 | –
2 | Cn1cc2cc(-n3c(=O)c(-c4ccc(C(F)(F)F)nc4)c(NCC4CC4)c4cn[nH]c43)ccc2n1 [Compound 108] | 66.7 | 17.3 | –
3 | CCOc1c(-c2ccc(Cl)cc2)c(=O)n(-c2ccc3nn(C)nc3c2)c2[nH]ncc12 [Compound 127] | 8.9 | 12.4 | –
4 | CCOc1c(-c2ccc(Cl)cc2)c(=O)n(-c2ccc3nnn(C)c3c2)c2[nH]ncc12 [Compound 128] | 1.2 | 8.6 | –
5 | CCOc1c(-c2ccc(Cl)cc2)c(=O)n(-c2ccc3nn(C)c(C)c3c2)c2[nH]ncc12 [Compound 66] | 12.7 | 13.7 | –
6 | CCNc1c(-c2ccc(Cl)cc2)c(=O)n(-c2ccc3nn(C)cc3c2)c2[nH]ncc12 [Compound 11] | 4.9 | 14.2 | –
7 | CCOc1c(-c2ccc(C3CC3)nc2)c(=O)n(-c2ccc3nn(C)cc3c2)c2[nH]ncc12 [Compound 47] | 6.6 | 14.8 | –
8 | CCOc1c(-c2ccc(Cl)cc2)c(=O)n(-c2ccc3ncn(C)c3c2)c2[nH]ncc12 [Compound 33] | 41.5 | 14.9 | –
9 | CCNc1c(-c2ccc(OC)cc2)c(=O)n(-c2ccc(OC)cc2)c2[nH]ncc12 [Compound 10] | 618 | 20.6 | –
10 | CCOc1c(-c2ccc(Cl)cc2)c(=O)n(-c2ccc3nn(C)cc3c2)c2nn(C)cc12 [Compound 134] | 6.1 | 19.1 | –
11 | Cn1cc2cc(-n3c(=O)c(-c4ccc(Cl)cc4)c(NCC4CC4)c4cn[nH]c43)ccc2n1 [Compound 123] | 3.7 | 11.7 | –
12 | Cn1cc2cc(-n3c(=O)c(-c4ccc(Cl)cc4)c(OCC(F)(F)F)c4cn[nH]c43)ccc2n1 [Compound 28] | 5.2 | 15 | –
13 | CCOc1c(-c2ccc(OC)cc2)c(=O)n(-c2ccc3ncn(C)c3c2)c2[nH]ncc12 [Compound 15] | 159 | 15.3 | –
14 | CCNc1c(-c2ccc(OC(F)F)cc2)c(=O)n(-c2ccc3nn(C)cc3c2)c2[nH]ncc12 [Compound 9] | 24.7 | 15.3 | –
15 | COc1ccc(-c2c(OCC(F)(F)F)c3cn[nH]c3n(-c3ccc4nn(C)cc4c3)c2=O)cn1 [Compound 29] | 13.5 | 12.3 | –
16 | Cn1cc2cc(-n3c(=O)c(-c4ccc(C5CC5)nc4)c(OCC(F)(F)F)c4cn[nH]c43)ccc2n1 [Compound 53] | 19.5 | 16 | –
17 | COc1ccc(-c2cc3cn[nH]c3n(-c3ccc4nn(C)cc4c3)c2=O)cc1 [Compound 1] | – | > 10000 | > 10000
18 | Cn1cc2cc(-n3c(=O)c(-c4ccc(F)cc4)c(OCC(F)(F)F)c4cn[nH]c43)ccc2n1 [Compound 49] | 57.8 | 17.9 | –
19 | COc1ccc(-c2c(NCC3CC3)c3cn[nH]c3n(-c3ccc4nn(C)cc4n3)c2=O)cc1 [Compound 5] | 28 | 17.7 | –
20 | CCOc1c(-c2ccc(F)c(F)c2)c(=O)n(-c2ccc3nn(C)cc3c2)c2[nH]ncc12 [Compound 118] | 136 | 16 | –
21 | O=c1c(-c2ccc(Cl)cc2)c(OCC(F)(F)F)c2cn[nH]c2n1-c1ccc2nn(C3COC3)cc2c1 [Compound 93] | 1.5 | 16.2 | –

Row | SMILES | IC50 (KP-4 cells; Homo sapiens, 120 h) [nM] | IC50 (MAT2A) [nM] | IC50 (KP-4 cells) [nM]
22 | CCOc1c(-c2ccc(C(F)(F)F)nc2)c(=O)n(-c2ccc3nn(CC)cc3c2)c2[nH]ncc12 [Compound 102] | 41.1 | 20.6 | –
23 | CCOc1c(-c2ccc(OC(F)F)cc2)c(=O)n(-c2ccc3ncn(C)c3c2)c2[nH]ncc12 [Compound 22] | – | 16 | 28.1
24 | CCOc1c(-c2ccc(F)cc2)c(=O)n(-c2ccc3nn(C)cc3c2)c2[nH]ncc12 [Compound 17] | 18 | 13.9 | –
25 | Cn1cc2cc(-n3c(=O)c(-c4ccc(Cl)cc4)c(OCC4CC4)c4cn[nH]c43)ccc2n1 [Compound 50] | 21.4 | 13.6 | –
26 | CCNc1c(-c2ccc(Cl)cc2)c(=O)n(-c2ccc3nn(C)cc3n2)c2[nH]ncc12 [Compound 105] | 59 | 19.6 | –
27 | CCCOc1c(-c2ccc(Cl)nc2)c(=O)n(-c2ccc3nn(C)cc3c2)c2[nH]ncc12 [Compound 58] | 3.5 | 14.8 | –
28 | Cn1cc2cc(-n3c(=O)c(-c4ccc(C(F)(F)F)nc4)c(OCC4CC4)c4cn[nH]c43)ccc2n1 [Compound 104] | 8.3 | 15.7 | –
29 | CCOc1c(-c2ccc(Cl)cc2)c(=O)n(-c2ccc3nn(CCN(C)C)cc3c2)c2[nH]ncc12 [Compound 111] | 62.8 | 17.5 | –
30 | CCOc1c(-c2ccc(OC)cc2)c(=O)n(-c2ccc3nn(C)cc3c2)c2[nH]ncc12 [Compound 3] | 64 | 19.4 | –
31 | Cn1cc2cc(-n3c(=O)c(-c4ccc(F)cc4)c(OCC4CC4)c4cn[nH]c43)ccc2n1 [Compound 51] | 35.7 | 15.7 | –
32 | CCOc1c(-c2ccc(Br)cc2)c(=O)n(-c2ccc3nn(C)cc3c2)c2[nH]ncc12 [Compound 54] | 19.2 | 12.9 | –
33 | CCOc1c(-c2ccc(OC(F)F)cc2)c(=O)n(-c2ccc3nn(C4CNC4)cc3c2)c2[nH]ncc12 [Compound 38] | 149 | 18.6 | –
34 | CCOc1c(-c2ccc(C(F)(F)F)nc2)c(=O)n(-c2ccc3nn(C4COC4)cc3c2)c2[nH]ncc12 [Compound 92] | 279 | 19.1 | –
35 | CCOc1c(-c2ccc(C(F)(F)F)nc2)c(=O)n(-c2ccc3nn(C)cc3c2)c2[nH]ncc12 [Compound 46] | 60.9 | 15.3 | –
36 | CCNc1c(-c2ccc(C(F)(F)F)nc2)c(=O)n(-c2ccc3nn(C)cc3c2)c2[nH]ncc12 [Compound 106] | 234 | 28.8 | –
37 | Cn1cc2cc(-n3c(=O)c(-c4ccc(Cl)cc4)c(NCC(F)(F)F)c4cn[nH]c43)ccc2n1 [Compound 63] | 2.4 | 18.2 | –
38 | CCOc1c(-c2ccc(OC)nc2)c(=O)n(-c2ccc3nn(C)cc3c2)c2[nH]ncc12 [Compound 126] | 38 | 12.6 | –
39 | COc1ccc(-c2c(OCC(F)(F)F)c3cn[nH]c3n(-c3ccc4nn(C)cc4c3)c2=O)cc1 [Compound 12] | 11.7 | 12.1 | –
40 | CCOc1c(-c2ccc(Cl)cn2)c(=O)n(-c2ccc3nn(C)cc3c2)c2[nH]ncc12 [Compound 62] | 180 | 18 | –
41 | Cn1cc2nc(-n3c(=O)c(-c4ccc(Cl)cc4)c(NCC4CC4)c4cn[nH]c43)ccc2n1 [Compound 107] | 73.2 | 16.7 | –
42 | CCOc1c(-c2ccc(Cl)cc2)c(=O)n(-c2ccc3nn(C)cc3c2)c2cn[nH]c12 [Compound 55] | 2.5 | 16.5 | –
